Target: Polθ theta (1-899) (hPolQ) (Homo sapiens (Human), UniProt O75417)
Test: Biological Assay 2: Polθ ATPase activity, NADH oxidation-coupled enzymatic assay (5 nM enzyme, 120 min)
Assay type: biochemical
Conditions: Polθ (1-899) 5 nM, 100 μM ATP, 300 nM dT50 ssDNA; Examples 269 to 271; read-out: ATPase NADH coupling:Standard Screening:hPolQ IC50
Method: The ability of the compounds (Example 269 to Example 271) of described herein to inhibit ATPase activity of Polθ theta (1-899) was determined using the assay described below.
Polθ Theta ATPase activity was determined by measuring the rate of ATP turn over in a NADH oxidation-coupled enzymatic assay. 11-point dilution series of compounds were used in a 384 well format for the inhibition assays. Polθ theta (1-899) (5 nM) in assay buffer (20 mM Tris HCl (pH 7.80), 80 mM KCl, 10 mM MgCl2, 1 mM DTT, 0.01% BSA, 0.01% Tween, 5% glycerol) was transferred to the test wells (20 μL), except the low control wells (20 μL of assay buffer was added to the low control wells). The plate was then incubated at room temperature for 15 min. An equal volume (20 μL) of 100 μM ATP, 300 nM dT50 (single-stranded DNA (ssDNA) containing 50 thymine bases), 300 μM NADH, 6 mM PEP, 10 U/mL lactate dehydrogenase and U/mL pyruvate kinase in assay buffer was added to all the test wells. The plate was then centrifuged at 1000 rpm for 1 min. The reaction was monitored for 120 min by measuring absorbance (λ=340 nm) in a PHERAstar FSX multimode plate reader every 3 minute. The high control (DMSO with enzyme) with low absorbance intensity represents no inhibition of ATPase reaction while the low control (DMSO with buffer) with high absorbance intensity represents full inhibition of ATPase activity. Slope of the reaction progress curves were used to calculate the rate of ATP hydrolysis. The rates were used to determine the percent inhibition using a four-parameter inhibition model to generate IC50, Hill slope and max inhibition.

Sequence of Polθ theta (1-899) (hPolQ) (O75417 1-899): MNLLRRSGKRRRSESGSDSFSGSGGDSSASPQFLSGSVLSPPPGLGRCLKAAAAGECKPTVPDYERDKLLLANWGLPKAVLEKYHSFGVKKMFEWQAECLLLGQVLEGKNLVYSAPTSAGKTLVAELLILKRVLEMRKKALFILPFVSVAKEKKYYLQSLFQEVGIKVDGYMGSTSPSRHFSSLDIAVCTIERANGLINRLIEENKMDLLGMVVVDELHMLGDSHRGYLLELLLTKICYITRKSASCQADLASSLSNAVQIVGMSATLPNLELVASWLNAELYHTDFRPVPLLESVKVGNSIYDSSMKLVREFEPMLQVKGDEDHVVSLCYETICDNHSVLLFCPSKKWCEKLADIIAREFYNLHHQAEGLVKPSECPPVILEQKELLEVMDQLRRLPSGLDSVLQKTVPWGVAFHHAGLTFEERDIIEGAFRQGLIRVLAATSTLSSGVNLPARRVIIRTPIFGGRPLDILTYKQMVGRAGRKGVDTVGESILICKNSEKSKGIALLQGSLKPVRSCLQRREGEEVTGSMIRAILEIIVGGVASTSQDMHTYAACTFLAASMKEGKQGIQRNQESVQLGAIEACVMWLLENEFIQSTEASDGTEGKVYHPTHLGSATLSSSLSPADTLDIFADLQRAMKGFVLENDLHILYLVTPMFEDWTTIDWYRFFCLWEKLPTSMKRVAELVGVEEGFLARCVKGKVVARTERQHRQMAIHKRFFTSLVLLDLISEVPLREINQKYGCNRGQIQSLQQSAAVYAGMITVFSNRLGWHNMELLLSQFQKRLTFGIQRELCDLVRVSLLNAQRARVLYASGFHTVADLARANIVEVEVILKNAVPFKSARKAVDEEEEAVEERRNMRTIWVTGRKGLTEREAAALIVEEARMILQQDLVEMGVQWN

SMILES	IC50
COc1cnc(Cl)cc1-c1cc(C)ncc1C(=O)Nc1nnc(OC[C@@H]2CCN(C(C)=O)C2)s1 [Example 270, (R)—N-(5-((1-acetylpyrrolidin-3-yl)methoxy)-1,3,4-thiadiazol-2-yl)-2′-chloro-5′-methoxy-6-methyl-(4,4′-bipyridine)-3-carboxamide]	1000 to 10000 nM
COc1cnc(Cl)cc1-c1cc(C)ncc1C(=O)Nc1nnc(OCC2(F)CN(C)C2)s1 [Example 269, 2′-chloro-N-(5-((3-fluoro-1-methylazetidin-3-yl)methoxy)-1,3,4-thiadiazol-2-yl)-5′-methoxy-6-methyl-(4,4′-bipyridine)-3-carboxamide]	≤ 200 nM
COc1cnc(Cl)cc1-c1cc(C)ncc1C(=O)Nc1nnc(OCC(C)(C)N2CCNC2=O)s1 [Example 271, 2′-chloro-5′-methoxy-6-methyl-N-(5-(2-methyl-2-(2-oxoimidazolidin-1-yl)propoxy)-1,3,4-thiadiazol-2-yl)-(4,4′-bipyridine)-3-carboxamide]	≤ 200 nM

Reference: patent publication US20250325552A1, “SUBSTITUTED THIADIAZOLYL DERIVATIVES AS DNA POLYMERASE THETA INHIBITORS” (IDEAYA Biosciences, Inc., priority 2020, published 2025)
